Assay results: patent US20210269479A1, “USE OF CY[…] FOR TREATING CANCER” (Hepion Pharmaceuticals, Inc., priority 2020, published 2021)

Test system: human precision cut liver slices (PCLS)
Experiment: RNA-Seq of PCLS, Stimulation Protocol (TGFb/PDGF + CRV vs TGFb/PDGF + Vehicle)
Type: cell-based
Method: PCLS were obtained from 5 human donors who underwent resection of liver cancer. Replicate slices were collected from healthy margins of the resections and cultured for 4 or 6 days depending on the experimental protocol. In the Nonstimulation Protocol slices were cultured for 6 days and treated for the entire period with DMSO vehicle or 5 μM CRV431. In the Stimulation Protocol slices were rested for 1 day and then administered the cytokines, TGFβ and PDGF-BB, for 3 days to stimulate inflammation and fibrosis. DMSO vehicle, CRV431 (1 and 5 μM), Alk5i (10 μM), obeticholic acid (5 μM), elafibranor (5 μM), resmetirom (5 μM), and Aramchol (5 μM) were administered individually as drug treatments in the Stimulation Protocol concurrent with TGFβ+PDGF-BB. Culture medium treatments were replaced daily.
(d) Gene expression by RNA-Seq. RNA sequencing of the complete transcriptome (30 million reads per sample) was conducted on vehicle and 5 μM CRV431 treatment groups from 3 donors both from the Nonstimulation and Stimulation Protocols. Data were analyzed by bioinformatics software programs to identify genes that were differentially expressed between vehicle and CRV431 treatments.
For the evaluation done for (d), 12 samples corresponding to 3 different donor slides which underwent 4 different treatments were studied. the comparisons carried out in this analysis are: (1) TGFb/PDGF+CRV vs TGFb/PDGF+Vehicle (V), and (2) Non-stimulated+CRV vs Non-stimulated+Vehicle.
Heatmaps were also generated to plot significant differently expressed genes for the comparison TGFb/PDGF+CRV and TGFb/PDGF+Vehicle (p-adjust<0.05, log fold change>0.5). The heatmap with the samples grouped by group is shown in FIG. 3A to observe the different expression pattern present within the group (blue=vehicle; red=CRV). The same significant genes were also plotted into another heatmap (FIG. 3B) but the samples are now plotted grouped by donor in order to observe the differences between donors (blue=vehicle; red=CRV).
Significant differently expressed genes that were identified in the comparison TGFb/PDGF+CRV and TGFb/PDGF+Vehicle ([…], log fold change>0.5) are shown in Table 2. The fold change is relative to the treatment (CRV).
As shown in the PCA analysis, there is a strong effect of the donor. Therefore, each donor was analyzed individually. Counts comparison was performed for TGFb/PDGF+[…] vs TGFb/PDGF+Vehicle by donor. […] Therefore the vehicle group had at least 300 copies less than CRV treatment. In other words, the treatment had at least 300 copies more than the Vehicle. After doing this selection individually for each donor, a venn diagram was plotted showing the overlapping between all three donors.
So, they had at least 300 copies less in the CRV treatment compared to the vehicle. After doing the selection individually for each donor, a venn diagram was plotted showing the overlapping between all three donors.

[1] = TGFb/PDGF + CRV vs TGFb/PDGF + Vehicle, 5 μM
[2] = presence of exogenous TGFβ+PDGF-BB, all donors

CC[C@@H]1NC(=O)[C@H]([C@H](O)[C@H](C)CCCCCCNC(C)=O)N(C)C(=O)[C@H](C(C)C)N(C)C(=O)[C@H](CC(C)C)N(C)C(=O)[C@H](CC(C)C)N(C)C(=O)[C@@H](C)NC(=O)[C@H](C)NC(=O)[C@H](CC(C)C)N(C)C(=O)[C@H](C(C)C)NC(=O)[C@H](CC(C)C)N(C)C(=O)[C@@H](C)N(C)C1=O [CRV431]
log2FoldChange, gene AC009053.1 [1]: 1.194 | log2FoldChange, gene AC134772.2 [1]: −4.561 | log2FoldChange, gene ADH1B [1]: 2.156 | log2FoldChange, gene ADH1C [1]: 1.869 | log2FoldChange, gene ADH4 [1]: 2.123 | log2FoldChange, gene ADH6 [1]: 1.903 | log2FoldChange, gene ADIRF [1]: 1.402 | log2FoldChange, gene APLNR [1]: 0.844 | log2FoldChange, gene ASPG [1]: 0.91 | log2FoldChange, gene ATP13A4 [1]: −3.082 | log2FoldChange, gene C7 [1]: 0.739 | log2FoldChange, gene CA11 [1]: −1.573 | log2FoldChange, gene CBFA2T2 [1]: 1.299 | log2FoldChange, gene CD93 [1]: −0.613 | log2FoldChange, gene CHST1 [1]: −1.087 | log2FoldChange, gene COL5A3 [1]: −0.842 | log2FoldChange, gene CXADR [1]: 1.61 | log2FoldChange, gene CYP4A11 [1]: 1.611 | log2FoldChange, gene CYP26A1 [1]: −1.283 | log2FoldChange, gene CYP26B1 [1]: −0.656 | log2FoldChange, gene DCHS1 [1]: −0.686 | log2FoldChange, gene DLL4 [1]: −0.69 | log2FoldChange, gene DUOX2 [1]: −2.182 | log2FoldChange, gene DVL1 [1]: 0.635 | log2FoldChange, gene ENSG00000283623 (symbol NA) [1]: −5.759 | log2FoldChange, gene ERVK13-1 [1]: −1.125 | log2FoldChange, gene ESAM [1]: −0.573 | log2FoldChange, gene ESM1 [1]: −1.401 | log2FoldChange, gene ESR1 [1]: 3.688 | log2FoldChange, gene F2RL3 [1]: −0.711 | log2FoldChange, gene GLYATL1 [1]: 1.438 | log2FoldChange, gene GPR4 [1]: −0.9 | log2FoldChange, gene GRAP [1]: −0.772 | log2FoldChange, gene HIST2H2AA4 [1]: −7.504 | log2FoldChange, gene IGHV4-61 [1]: 7.957 | log2FoldChange, gene IGLON5 [1]: −0.851 | log2FoldChange, gene ISLR2 [1]: −1.27 | log2FoldChange, gene KDM6A [1]: 0.785 | log2FoldChange, gene LAMA4 [1]: −0.939 | log2FoldChange, gene LIMS3 [1]: −1.705 | log2FoldChange, gene LOXL2 [1]: −0.948 | log2FoldChange, gene MCAM [1]: −0.841 | log2FoldChange, gene MEF2C [1]: −1.013 | log2FoldChange, gene MEG3 [1]: −0.853 | log2FoldChange, gene MRC2 [1]: −0.773 | log2FoldChange, gene MROH2A [1]: 3.641 | log2FoldChange, gene MT-CO1 [1]: −0.85 | log2FoldChange, gene NID2 [1]: −0.755 | log2FoldChange, gene NXPH4 [1]: −0.808 | log2FoldChange, gene PAN2 [1]: 1.019 | log2FoldChange, gene PANK3 [1]: 0.687 | log2FoldChange, gene PCDH12 [1]: −0.741 | log2FoldChange, gene PHF8 [1]: 0.709 | log2FoldChange, gene PKLR [1]: 2.127 | log2FoldChange, gene PLXNA2 [1]: 1.326 | log2FoldChange, gene POU6F1 [1]: −1.716 | log2FoldChange, gene PPP1R16B [1]: −1.016 | log2FoldChange, gene RALGPS2 [1]: 0.836 | log2FoldChange, gene RBMXL1 [1]: −8.265 | log2FoldChange, gene RCCD1 [1]: −1.838 | log2FoldChange, gene RHCG [1]: −0.927 | log2FoldChange, gene RPS7P1 [1]: 2.668 | log2FoldChange, gene SLC4A8 [1]: −2.641 | log2FoldChange, gene SLC26A6 [1]: −0.692 | log2FoldChange, gene SLC39A5 [1]: 1.92 | log2FoldChange, gene SMC5 [1]: 0.799 | log2FoldChange, gene STRA6 [1]: −1.639 | log2FoldChange, gene STX16 [1]: 1.025 | log2FoldChange, gene TDO2 [1]: 0.916 | log2FoldChange, gene TMEM70 [1]: 1.062 | log2FoldChange, gene TTYH2 [1]: −1.114 | log2FoldChange, gene UBD [1]: −1.035 | log2FoldChange, gene VWA8 [1]: 1.514 | log2FoldChange, gene ZC3H10 [1]: 1.022 | log2FoldChange, gene ZDHHC20 [1]: 1.207 | log2FoldChange, gene ZNF461 [1]: 1.391 | expression of fibrosis-related genes by RNA-Seq (collagen genes, collagen hydroxylases and oxidases, ACTA2, VEGF, TIMPs): decreased expression of many fibrosis-related genes | fold change in RNA, DUOX2 [2]: −4.5 fold | fold change in RNA, ESM1 [2]: −2.6 fold | fold change in RNA, LOXL2 [2]: −1.9 fold | fold change in RNA, RCCD1 [2]: −3.6 fold | fold change in RNA, STRA6 [2]: −3.1 fold | fold change in RNA, UBD/FAT10 [2]: −2.0 fold
